Values quoted from earlier work, collected in paper PMC7468272 (Acta Pharmacologica Sinica, 2019).

Tested on: CBP/p300

SMILES: CO[C@H]1CC[C@H](n2c([C@@H]3CCCC(=O)N3c3ccc(F)c(F)c3)nc3cc(-c4c(C)noc4C)ccc32)CC1 [CCS1477]
- affinity for CBP/p300: single-digit nanomolar affinity
